Legend:
β2 = biological target: T1, β2 (Cavia porcellus, UniProt Q8K4Z4); assay: Guinea pig's isolated tracheal, L-isoproterenol relaxation of carbachol contraction (pA2); conditions: for β2 Value of pA2 Tracheal: vs L-isoproterenol, carbachol 10^−6 M contraction
T1 construct: a portion of tracheal approximately 4 cm long was removed; from tissue; host or cells: isolated trachea of reserpine-pretreated guinea pigs
Protocol: Guinea pigs of weight between 300˜500 gm were used. […] After the guinea pigs were sacrificed, a slit was made along the neck, and a portion of tracheal approximately 4 cm long was removed. […] The two ends of the tracheal were clamped with frog-heart shaped clamps, one end was fixed at the bottom of tissue bath filled with 20 ml of Kreb's solution, maintained at 37° C., while the other end was connected to a force transducer. Through a COULBOURN AT-High-Speed Videograph, long isometric contractions were recorded. After the sample was given 1.5 gm of tension and equilibrated, the following experiments were performed:
Then the tracheal was repeatedly washed with Kreb's solution for 20 minutes and 10−6 M of carbochol was added to cause contraction in the guinea pig's tracheal. […] This is the test group.
(b) Calculation of pA2: similar to the calculation method for isolated right atrium experiment.

atrial β 1-receptor = biological target: T2, atrial β 1-receptor (Rattus norvegicus, UniProt P18090); assay type: binding, Wistar rat; conditions: 25° C., 60 minutes
T2 construct: The heart and lung of rat were removed and placed in cold Tris buffer; from tissue; host or cells: membrane preparation from rat atria

β-adrenoreceptor (β1) = biological target: T3, β-adrenoreceptor (β1) (Rattus norvegicus, UniProt P18090); assay: Isolated left atrium, L-isoproterenol-induced contractility increase (pA2); design: species or system Wistar rat; conditions: for β1 Value of pA2 Left Atrium: vs L-isoproterenol, electrically stimulated
T3 construct: The right and left atria were then separated; from tissue; host or cells: isolated rat right atrium (spontaneously beating) and left atrium (electrically paced)
Protocol: The inspontaneously-beating left atrial tissue was obtained from rat's isolated right atrial tissue experiments. […] The contraction rate was 1 Hz and the resting tension 0.5 gm. After 60 minutes of equilibration, the following experiments were performed:
(a) Completion of cumulative concentration-response curve: similar to experimental method on isolated right atrium;
(b) Calculation of pA2 value: similar to calculation method on isolated right atrium.

T3 sequence (P18090 whole entry): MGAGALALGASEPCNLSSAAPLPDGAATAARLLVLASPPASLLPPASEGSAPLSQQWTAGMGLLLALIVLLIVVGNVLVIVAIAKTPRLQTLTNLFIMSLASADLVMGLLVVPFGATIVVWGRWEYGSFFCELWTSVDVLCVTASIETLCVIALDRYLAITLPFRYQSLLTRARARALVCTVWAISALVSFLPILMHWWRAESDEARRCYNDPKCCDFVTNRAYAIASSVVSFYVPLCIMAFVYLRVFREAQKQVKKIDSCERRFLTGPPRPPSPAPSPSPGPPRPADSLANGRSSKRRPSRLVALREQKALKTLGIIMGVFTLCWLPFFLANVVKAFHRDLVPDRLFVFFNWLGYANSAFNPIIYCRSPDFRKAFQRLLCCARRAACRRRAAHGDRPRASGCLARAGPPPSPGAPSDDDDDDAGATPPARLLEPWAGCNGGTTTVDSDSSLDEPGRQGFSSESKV
T1 sequence (Q8K4Z4 whole entry): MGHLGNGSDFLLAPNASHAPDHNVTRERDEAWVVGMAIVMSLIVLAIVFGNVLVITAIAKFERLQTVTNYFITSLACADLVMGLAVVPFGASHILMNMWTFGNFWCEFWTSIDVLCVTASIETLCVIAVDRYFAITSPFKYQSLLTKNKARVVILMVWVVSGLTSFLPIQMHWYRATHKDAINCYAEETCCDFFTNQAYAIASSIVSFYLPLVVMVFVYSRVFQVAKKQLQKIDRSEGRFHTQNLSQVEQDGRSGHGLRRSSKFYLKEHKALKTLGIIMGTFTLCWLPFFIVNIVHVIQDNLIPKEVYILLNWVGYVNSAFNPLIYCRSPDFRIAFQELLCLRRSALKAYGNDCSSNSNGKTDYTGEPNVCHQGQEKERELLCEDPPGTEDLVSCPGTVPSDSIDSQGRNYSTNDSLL
T2 sequence (P18090 whole entry): as the sequence (P18090 whole entry) above

block of the tracheal effect of L-isoproterenol (β2; 10^−6, 10^−5, and 10^−6 M as printed): could competitively block
β2 Tracheal (slope) (β2; slope of Schild regression): (0.84 ± 0.09)
β2 Value of pA2 Tracheal (β2): 7.09 ± 0.54
β2 Value of pA2 Tracheal (β2; listed as compound 1): 7.09±0.54
[^3H] CGP-12177 (β1) pKi (atrial β 1-receptor): 6.61 ± 0.46
block of heart contractility increment effect of L-isoproterenol (β-adrenoreceptor (β1); left atrium, 10^−6, 10^−5, and 10^−6 M as printed): could competitively block
β1 Left Atrium (Slope) (β-adrenoreceptor (β1); slope of Schild regression): (0.85 ± 0.02)
β1 Value of pA2 Left Atrium (β-adrenoreceptor (β1)): 6.91 ± 0.26
β1 Value of pA2 Left Atrium (β-adrenoreceptor (β1); listed as compound 1): 6.91±0.26
Structure (SMILES): COC(=O)C1=C(C)NC(C)=C(C(=O)OC)C1c1ccc(OCC(O)CNC(C)(C)C)c(OC)c1 (stereo not drawn) [Compound 1]
